Data as given in patent US20100286145A1, “ISOPHTHALAMIDE DERIVATIVES INHIBITING BETA-SECRETASE ACTIVITY” (CoMentis, Inc., priority 2007, published 2010).
Where two headings read alike, the source gives them in different places.

Experiments:
[1] = test system: Aβ production in Chinese hamster ovary cells that over-express human APP695 with the London and Swedish mutations; assay: Cellular Aβ IC50 determination (Aβ40 sandwich ELISA); format: cell-based; conditions: Cricetulus griseus; cellular Aβ production; read-out: IC50
Summary of the method: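 CHO cells overexpressing human APP695 with London and Swedish mutations, seeded at 10% confluency, treated with compounds up to about 4 μM final (0.4% DMSO). Secreted Aβ40 measured by sandwich ELISA relative to control and fitted to a 4-parameter IC50 model.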

[2] = molecular target: memapsin 2 (Homo sapiens, UniProt P56817); assay: Inhibition of memapsin 2 beta-secretase activity (fluorogenic substrate FS-2); format: biochemical; conditions: memapsin 2, pH 4, 37° C., read-out: M2Ki
Summary of the method: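 Memapsin 2 pre-incubated 20 min with compound at pH 4, 37° C, then FS-2 substrate (MCA-SEVNLDAEFK-DNP, APP Swedish cleavage site) added. Rate of fluorescence increase compared with uninhibited controls, fitted to a tight-binding inhibition model.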

memapsin 2, sequence (P56817 46-501): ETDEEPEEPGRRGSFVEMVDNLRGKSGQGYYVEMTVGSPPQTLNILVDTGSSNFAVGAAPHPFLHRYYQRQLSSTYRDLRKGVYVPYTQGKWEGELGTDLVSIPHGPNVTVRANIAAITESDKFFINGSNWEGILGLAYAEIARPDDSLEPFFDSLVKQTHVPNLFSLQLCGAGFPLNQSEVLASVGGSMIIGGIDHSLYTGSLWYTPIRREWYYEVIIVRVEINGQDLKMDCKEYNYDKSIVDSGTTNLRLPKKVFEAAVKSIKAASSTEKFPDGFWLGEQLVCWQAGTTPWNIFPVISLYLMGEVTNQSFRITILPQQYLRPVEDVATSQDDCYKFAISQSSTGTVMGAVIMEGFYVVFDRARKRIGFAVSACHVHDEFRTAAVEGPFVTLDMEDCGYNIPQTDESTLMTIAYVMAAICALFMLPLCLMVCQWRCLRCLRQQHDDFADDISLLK

IC50 [1] | Ki ([2]; fluorogenic substrate FS-2) | Ki ([2]; 20 minutes pre-incubation) | Structure (SMILES)
< 1000 nM | < 300 nM | – | COc1cccc(CNC[C@@H](O)[C@H](Cc2ccccc2)NC(=O)c2cc(C(=O)N(C)Cc3nc(C)cs3)cc(-n3cccc3)c2)c1 [Compound 238, N1-((2S,3R)-3-hydroxy-4-(3-methoxybenzylamino)-1-phenylbutan-2-yl)-N3-methyl-N3-((4-methylthiazol-2-yl)methyl)-5-(1H-pyrrol-1-yl)isophthalamide]
< 1000 nM | – | < 300 nM | COc1cccc(CNC[C@@H](O)[C@H](Cc2ccccc2)NC(=O)c2cc(C)cc(C(=O)N(Cc3nc(C)cs3)C3CC3)c2)c1 [Compound 9, N1-cyclopropyl-N3-((2S,3R)-3-hydroxy-4-(3-methoxybenzylamino)-1-phenylbutan-2-yl)-5-methyl-N1-((4-methylthiazol-2-yl)methyl)isophthalamide]
1000 to 5000 nM | – | > 501 nM | Cc1csc(CN(C)C(=O)c2cccc(C(=O)N[C@@H](Cc3ccccc3)[C@H](O)CNCc3ccccn3)c2)n1 [Compound 64, N1-((2S,3R)-3-hydroxy-1-phenyl-4-(pyridin-2-ylmethylamino)butan-2-yl)-N3-methyl-N3-((4-methylthiazol-2-yl)methyl)isophthalamide]
< 1000 nM | < 300 nM | – | Cc1csc(CN(C)C(=O)c2cc(C(=O)N[C@@H](Cc3ccccc3)[C@H](O)CNCc3cncc(C(C)(F)F)c3)cc(N(C)C)c2)n1 [Compound 253, N1-((2S,3R)-4-((5-(1,1-difluoroethyl)pyridin-3-yl)methylamino)-3-hydroxy-1-phenylbutan-2-yl)-5-(dimethylamino)-N3-methyl-N3-((4-methylthiazol-2-yl)methyl)isophthalamide]
< 1000 nM | – | < 300 nM | COc1cccc(CNC[C@@H](O)[C@H](Cc2ccccc2)NC(=O)c2cc(CN=[N+]=[N-])cc(C(=O)N(C)Cc3nc(C)cs3)c2)c1 [Compound 121, 5-(azidomethyl)-N1-((2S,3R)-3-hydroxy-4-(3-methoxybenzylamino)-1-phenylbutan-2-yl)-N3-methyl-N3-((4-methylthiazol-2-yl)methyl)isophthalamide]
< 1000 nM | – | < 300 nM | COc1cccc(CNC[C@@H](O)[C@H](Cc2ccccc2)NC(=O)c2cc(C(=O)N(C)Cc3nc(C)cs3)cc(-c3ccccc3)c2)c1 [Compound 78, N3-((2S,3R)-3-hydroxy-4-(3-methoxybenzylamino)-1-phenylbutan-2-yl)-N5-methyl-N5-((4-methylthiazol-2-yl)methyl)biphenyl-3,5-dicarboxamide]
> 5000 nM | – | > 501 nM | Cc1csc(CN(C)C(=O)c2cccc(C(=O)N[C@@H](Cc3ccccc3)[C@H](O)CNCc3cccc(O)c3)c2)n1 [Compound 73, N1-((2S,3R)-3-hydroxy-4-(3-hydroxybenzylamino)-1-phenylbutan-2-yl)-N3-methyl-N3-((4-methylthiazol-2-yl)methyl)isophthalamide]
> 5000 nM | – | > 501 nM | COc1cccc(CNC[C@@H](O)[C@H](Cc2ccccc2)NC(=O)c2cc(C(=O)NCc3nc(C)cs3)cc(N3CCCC3=O)c2)c1 [Compound 199, N1-((2S,3R)-3-hydroxy-4-(3-methoxybenzylamino)-1-phenylbutan-2-yl)-N3-((4-methylthiazol-2-yl)methyl)-5-(2-oxopyrrolidin-1-yl)isophthalamide]
< 1000 nM | – | < 300 nM | Cc1csc(CN(C)C(=O)c2cccc(C(=O)N[C@@H](Cc3ccccc3)[C@H](O)CNCc3cccc(I)c3)c2)n1 [Compound 97, N1-((2S,3R)-3-hydroxy-4-(3-iodobenzylamino)-1-phenylbutan-2-yl)-N3-methyl-N3-((4-methylthiazol-2-yl)methyl)isophthalamide]
< 1000 nM | – | < 300 nM | Cc1csc(CN(C)C(=O)c2cccc(C(=O)N[C@@H](Cc3ccccc3)[C@H](O)CNCc3cncc(C(F)(F)F)c3)c2)n1 [Compound 23, N1-((2S,3R)-3-hydroxy-1-phenyl-4-((5-(trifluoromethyl)pyridin-3-yl)methylamino)butan-2-yl)-N3-methyl-N3-((4-methylthiazol-2-yl)methyl)isophthalamide]
< 1000 nM | – | 301 to 500 nM | Cc1csc(CNC(=O)c2cccc(C(=O)N[C@@H](Cc3ccccc3)[C@H](O)CNCc3cc(C(C)C)c(C)nc3C)c2)n1 [Compound 93, N1-((2S,3R)-3-hydroxy-4-((5-isopropyl-2,6-dimethylpyridin-3-yl)methylamino)-1-phenylbutan-2-yl)-N3-((4-methylthiazol-2-yl)methyl)isophthalamide]
< 1000 nM | – | < 300 nM | Cc1csc(CN(C)C(=O)c2cc(C(=O)N[C@@H](Cc3ccccc3)[C@H](O)CNCc3cncc(C(C)C)c3)cc(-c3ccccn3)c2)n1 [Compound 181, N1-((2S,3R)-3-hydroxy-4-((5-isopropylpyridin-3-yl)methylamino)-1-phenylbutan-2-yl)-N3-methyl-N3-((4-methylthiazol-2-yl)methyl)-5-(pyridin-2-yl)isophthalamide]
< 1000 nM | < 300 nM | – | COC1(OC)CCN(c2cc(C(=O)N[C@@H](Cc3ccccc3)[C@H](O)CNCc3cncc(C(C)C)c3)cc(C(=O)N(C)Cc3nc(C)cs3)c2)C1 [Compound 299, 5-(3,3-dimethoxypyrrolidin-1-yl)-N1-((2S,3R)-3-hydroxy-4-((5-isopropylpyridin-3-yl)methylamino)-1-phenylbutan-2-yl)-N3-methyl-N3-((4-methylthiazol-2-yl)methyl)isophthalamide]
< 1000 nM | 301 to 500 nM | – | COc1cccc(CNC[C@@H](O)[C@H](Cc2ccccc2)NC(=O)c2cc(C(=O)N[C@H](C)c3ccccc3)cc(-c3ncco3)c2)c1 [Compound 213, N1-((2S,3R)-3-hydroxy-4-(3-methoxybenzylamino)-1-phenylbutan-2-yl)-5-(oxazol-2-yl)-N3-((R)-1-phenylethyl)isophthalamide]
< 1000 nM | < 300 nM | – | Cc1csc(CN(C)C(=O)c2cccc(C(=O)N[C@@H](Cc3ccccc3)[C@H](O)CNCc3cncc(C(C)(F)F)c3)c2)n1 [Compound 217, N1-((2S,3R)-4-((5-(1,1-difluoroethyl)pyridin-3-yl)methylamino)-3-hydroxy-1-phenylbutan-2-yl)-N3-methyl-N3-((4-methylthiazol-2-yl)methyl)isophthalamide]
< 1000 nM | – | < 300 nM | Cc1csc(CN(C)C(=O)c2cc(C(=O)N[C@@H](Cc3ccccc3)[C@H](O)CNCc3cncc(C(C)C)c3)cc(-c3ccncc3)c2)n1 [Compound 205, N1-((2S,3R)-3-hydroxy-4-((5-isopropylpyridin-3-yl)methylamino)-1-phenylbutan-2-yl)-N3-methyl-N3-((4-methylthiazol-2-yl)methyl)-5-(pyridin-4-yl)isophthalamide]
< 1000 nM | – | < 300 nM | Cc1csc(CN(C(=O)c2cc(C(=O)N[C@@H](Cc3ccccc3)[C@H](O)CNCc3cncc(C(C)C)c3)cc(-c3ncco3)c2)C2CC2)n1 [Compound 186, N1-cyclopropyl-N3-((2S,3R)-3-hydroxy-4-((5-isopropylpyridin-3-yl)methylamino)-1-phenylbutan-2-yl)-N1-((4-methylthiazol-2-yl)methyl)-5-(oxazol-2-yl)isophthalamide]
